# Experimental data taken from US9242981B2, “Fused pyrazole derivatives as novel ERK inhibitors” (Merck Sharp & Dohme Corp., priority 2010, dated 2016).
# Target: Mouse ERK2 protein (Mus musculus (Mouse), UniProt P63085)
# Test: Coupled MEK1/ERK2 IMAP assay or Active ERK2 IMAP assay
# Format: biochemical
# Details: Table 1, class symbols, 30 μM ATP
# Sequence of Mouse ERK2 protein (P63085 whole entry): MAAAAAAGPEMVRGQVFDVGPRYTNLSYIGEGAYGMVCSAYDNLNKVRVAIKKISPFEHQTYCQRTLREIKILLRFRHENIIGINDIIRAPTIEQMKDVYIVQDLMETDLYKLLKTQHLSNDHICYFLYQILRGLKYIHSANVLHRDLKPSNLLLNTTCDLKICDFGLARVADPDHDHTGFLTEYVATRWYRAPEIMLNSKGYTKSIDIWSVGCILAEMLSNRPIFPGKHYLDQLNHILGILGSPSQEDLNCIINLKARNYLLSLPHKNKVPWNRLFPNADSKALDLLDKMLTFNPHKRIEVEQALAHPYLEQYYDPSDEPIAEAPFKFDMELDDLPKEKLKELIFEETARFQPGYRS
row,Compound,IC50 [µM]
1,"COc1ccc(CN2CCC[C@@H](NC(=O)N3CCc4[nH]nc(-c5ccnc(C)c5)c4C3)C2)c2ccccc12 [Compound 99, 1,4,6,7-tetrahydro-N-[1-[(4-Methoxy-1-naphthalenyl)-methyl]-3(R)-piperidinyl]-3-(2-methyl-4-pyridinyl)-5H-pyrazolo[4,3-c]pyridine-5-carboxamide]",0.021 to 0.1
2,"Cc1cc(-c2n[nH]c3c2CN(C(=O)NC2CC(C)CN(Cc4csc5ccccc45)C2)CC3)ccn1 (stereo not shown) [Compound 101, N-[1-(benzo[b]thien-3-ylmethyl)-5-methyl-3-piperidinyl]-1,4,6,7-tetrahydro-3-(2-methyl-4-pyridinyl)-5H-pyrazolo[4,3-c]pyridine-5-carboxamide]",0.021 to 0.1
3,"Cc1cc(-c2n[nH]c3c2CN(C(=O)NC2CC(C)CN(Cc4cc5ccccc5n4C)C2)CC3)ccn1 (stereo not shown) [Compound 102, 1,4,6,7-tetrahydro-N-[5-methyl-1-[(1-methyl-1H-indol-2-yl)methyl]-3-piperidinyl]-3-(2-methyl-4-pyridinyl)-5H-pyrazolo[4,3-c]pyridine-5-carboxamide]",0.021 to 0.1
4,"Cc1cc(-c2n[nH]c3c2CN(C(=O)NC2CC(C)CN(Cc4ccccc4Cl)C2)CC3)ccn1 (stereo not shown) [Compound 103, N-[1-[(2-chlorophenyl)methyl]-5-methyl-3-piperidinyl]-1,4,6,7-tetrahydro-3-(2-methyl-4-pyridinyl)-5H-pyrazolo[4,3-c]pyridine-5-carboxamide]",0.021 to 0.1
5,"Cc1cc(-c2n[nH]c3c2CN(C(=O)NC2CC(C)CN(Cc4ccc5ccccc5n4)C2)CC3)ccn1 (stereo not drawn) [Compound 104, 1,4,6,7-tetrahydro-3-(2-methyl-4-pyridinyl)-N-[5-methyl-l-(2-quinolinylmethyl)-3-piperidinyl]-5H-pyrazolo[4,3-c]pyridine-5-carboxamide]",0.021 to 0.1
6,"Cc1cc(-c2n[nH]c3c2CN(C(=O)NC2CCC(c4ccccc4)NC2)CC3)ccn1 (stereo not shown) [Compound 105, 1,4,6,7-tetrahydro-3-(2-methyl-4-pyridinyl)-N-(6-phenyl-3-piperidinyl)-5H-pyrazolo[4,3-c]pyridine-5-carboxamide]",0.101 to 1
7,"Cc1cc(-c2n[nH]c3c2CN(C(=O)NC2CCC(c4ccccc4)N(Cc4c(F)cccc4F)C2)CC3)ccn1 (stereo not shown) [Compound 106, N-[1-[(2,6-difluorophenyl)-methyl]-6-phenyl-3-piperidinyl]-1,4,6,7-tetrahydro-3-(2-methyl-4-pyridinyl)-5H-pyrazolo[4,3-c]pyridine-5-carboxamide]",0.101 to 1
8,"O=C(NC1CC2CC1N(Cc1c(F)cccc1F)C2)N1CCc2[nH]nc(-c3ccncc3)c2C1 (stereo not shown) [Compound 107, N-[2-[(2,6-difluorophenyl)-methyl]-2-azabicyclo[2.2.1]-hept-6-yl]-1,4,6,7-tetrahydro-3-(4-pyridinyl)-5H-pyrazolo[4,3-c]pyridine-5-carboxamide]",0.101 to 1
9,"COc1cccc(F)c1CN1CC2CC(NC(=O)N3CCc4[nH]nc(-c5ccncc5)c4C3)C1C2 (stereo not shown) [Compound 108, N-[2-[(2-fluoro-6-methoxyphenyl)methyl]-2-azabicyclo[2.2.1]hept-6-yl]-1,4,6,7-tetrahydro-3-(4-pyridinyl)-5H-pyrazolo[4,3-c]pyridine-5-carboxamide]",0.101 to 1
10,"O=C(N[C@@H]1CCCN(Cc2c(F)cccc2F)C1)N1CCc2[nH]nc(-c3ccc4nccn4c3)c2C1 [Compound 111, N-[1-[(2,6-difluorophenyl)-methyl]-3(R)-piperidinyl]-1,4,6,7-tetrahydro-3-(imidazo[1,2-a]pyridin-6-yl)-5H-pyrazolo[4,3-c]pyridine-5-carboxamide]",< 0.02
11,"O=C(NC1CC(O)CN(Cc2ccccc2Cl)C1)N1CCc2[nH]nc(-c3ccncc3)c2C1 (stereo not shown) [Compound 114, N-[1-[(2-chlorophenyl)-methyl]-5-hydroxy-3-piperidinyl]-1,4,6,7-tetrahydro-3-(4-pyridinyl)-5H-pyrazolo[4,3-c]pyridine-5-carboxamide]",< 0.02
12,"Cc1cc(-c2n[nH]c3c2CN(C(=O)N[C@@H]2CCN(Cc4c(F)cccc4F)C2)CC3)ccn1 [Compound 115, N-[1-[(2,6-difluorophenyl)-methyl]-3(R)-pyrrolidinyl]-1,4,6,7-tetrahydro-3-(2-methyl-4-pyridinyl)-5H-pyrazolo[4,3-c]pyridine-5-carboxamide]",0.101 to 1
13,"COc1cccc(F)c1CN1CC[C@@H](NC(=O)N2CCc3[nH]nc(-c4ccnc(C)c4)c3C2)C1 [Compound 116, N-[1-[(2-fluoro-6-methoxyphenyl)methyl]-3(R)-pyrrolidinyl]-1,4,6,7-tetrahydro-3-(2-methyl-4-pyridinyl)-5H-pyrazolo[4,3-c]pyridine-5-carboxamide]",0.021 to 0.1
14,"Cc1cc(-c2n[nH]c3c2CN(C(=O)N[C@@H]2CCN(Cc4c(F)cccc4Cl)C2)CC3)ccn1 [Compound 117, N-[1-[(2-chloro-6-fluorophenyl)methyl]-3(R)-pyrrolidinyl]-1,4,6,7-tetrahydro-3-(2-methyl-4-pyridinyl)-5H-pyrazolo[4,3-c]pyridine-5-carboxamide]",0.021 to 0.1
15,"Cc1cc(-c2n[nH]c3c2CN(C(=O)N[C@@H]2CCN(Cc4ccccc4Cl)C2)CC3)ccn1 [Compound 118, N-[1-[(2-chlorophenyl)-methyl]-3(R)-pyrrolidinyl]-1,4,6,7-tetrahydro-3-(2-methyl-4-pyridinyl)-5H-pyrazolo[4,3-c]pyridine-5-carboxamide]",0.021 to 0.1
16,"Cc1cc(-c2n[nH]c3c2CN(C(=O)N[C@@H]2CCN(Cc4c(C)cccc4C)C2)CC3)ccn1 [Compound 119, N-[1-[(2,6-dimethylphenyl)-methyl]-3(R)-pyrrolidinyl]-1,4,6,7-tetrahydro-3-(2-methyl-4-pyridinyl)-5H-pyrazolo[4,3-c]pyridine-5-carboxamide]",0.021 to 0.1

# Other lines, results leading:
row,IC50 [µM],Compound
1,< 0.02,"Cc1cc(-c2n[nH]c3c2CN(C(=O)N[C@@H]2CCN(Cc4csc5ccccc45)C2)CC3)ccn1 [Compound 120, N-[1-(benzo[b]thien-3-ylmethyl)-3(R)-pyrrolidinyl]-1,4,6,7-tetrahydro-3-(2-methyl-4-pyridinyl)-5H-pyrazolo[4,3-c]pyridine-5-carboxamide]"
2,0.021 to 0.1,"COc1cccc(F)c1CN1CC(NC(=O)N2CCc3[nH]nc(-c4ccnc(C)c4)c3C2)CCC1C (stereo not shown) [Compound 121, N-[1-[(2-fluoro-6-methoxyphenyl)methyl]-6-methyl-3-piperidinyl]-1,4,6,7-tetrahydro-3-(2-methyl-4-pyridinyl)-5H-pyrazolo[4,3-c]pyridine-5-carboxamide]"
3,0.101 to 1,"COc1cccc(F)c1CN1CCCC(NC(=O)N2CCc3[nH]nc(-c4ccnc(C)c4)c3C2)C1C (stereo not shown) [Compound 122, N-[1-[(2-fluoro-6-methoxyphenyl)methyl]-2-methyl-3-piperidinyl]-1,4,6,7-tetrahydro-3-(2-methyl-4-pyridinyl)-5H-pyrazolo[4,3-c]pyridine-5-carboxamide]"
4,0.021 to 0.1,"COc1ccc(-c2n[nH]c3c2CN(C(=O)N[C@@H]2CCCN(Cc4c(C)cccc4C)C2)CC3)cc1F [Compound 124, N-[1-[(2,6-dimethylphenyl)-methyl]-3(R)-piperidinyl]-3-(3-fluoro-4-methoxyphenyl)-1,4,6,7-tetrahydro-5H-pyrazolo[4,3-c]pyridine-5-carboxamide]"
5,0.021 to 0.1,"COc1ccc(-c2n[nH]c3c2CN(C(=O)N[C@@H]2CCCN(Cc4c(C)cccc4C)C2)CC3)cn1 [Compound 125, N-[1-[(2,6-dimethylphenyl)-methyl]-3(R)-piperidinyl]-1,4,6,7-tetrahydro-3-(6-Methoxy-3-pyridinyl)-5H-pyrazolo[4,3-c]pyridine-5-carboxamide]"
6,< 0.02,"Cc1cccc(C)c1CN1CCC[C@@H](NC(=O)N2CCc3[nH]nc(-c4ccc5nn(C)cc5c4)c3C2)C1 [Compound 126, N-[1-[(2,6-dimethylphenyl)-methyl]-3(R)-piperidinyl]-1,4,6,7-tetrahydro-3-(2-methyl-2H-indazol-5-yl)-5H-pyrazolo[4,3-c]pyridine-5-carboxamide]"
7,< 0.02,"Cc1cccc(C)c1CN1CCC[C@@H](NC(=O)N2CCc3[nH]nc(-c4ccc5c(cnn5C)c4)c3C2)C1 [Compound 127, N-[1-[(2,6-dimethylphenyl)-methyl]-3(R)-piperidinyl]-1,4,6,7-tetrahydro-3-(1-methyl-1H-inclazol-5-yl)-5H-pyrazolo[4,3-c]pyridine-5-carboxamide]"
8,0.101 to 1,"O=C(N[C@@H]1CCN(Cc2csc3ccccc23)C1)N1CCc2[nH]nc(-c3ccc(-c4ccccc4)nc3)c2C1 [Compound 129, N-[1-(benzo[b]thien-3-ylmethyl)-3(R)-pyrrolidinyl]-1,4,6,7-tetrahydro-3-(6-phenyl-3-pyridinyl)-5H-pyrazolo[4,3-c]pyridine-5-carboxamide]"
9,0.021 to 0.1,"O=C(N[C@@H]1CCCN(Cc2c(F)cccc2F)C1)N1CCc2[nH]nc(-c3ccc4ncccc4c3)c2C1 [Compound 130, N-[1-[(2,6-difluorophenyl)-methyl]-3(R)-piperidinyl]-1,4,6,7-tetrahydro-3-(6-quinolinyl)-5H-pyrazolo[4,3-c]pyridine-5-carboxamide]"
10,0.021 to 0.1,"COc1ccc(-c2n[nH]c3c2CN(C(=O)N[C@@H]2CCCN(Cc4c(F)cccc4F)C2)CC3)cc1F [Compound 131, N-[1-[(2,6-difluorophenyl)-methyl]-3(R)-piperidinyl]-3-(3-fluoro-4-methoxyphenyl)-1,4,6,7-tetrahydro-5H-pyrazolo[4,3-c]pyridine-5-carboxamide]"
11,0.021 to 0.1,"COc1ccc(-c2n[nH]c3c2CN(C(=O)N[C@@H]2CCCN(Cc4c(F)cccc4F)C2)CC3)cn1 [Compound 132, N-[1-[(2,6-difluorophenyl)-methyl]-3(R)-piperidinyl]-1,4,6,7-tetrahydro-3-(6-Methoxy-3-pyridinyl)-5H-pyrazolo[4,3-c]pyridine-5-carboxamide]"
12,0.021 to 0.1,"Cn1cc2cc(-c3n[nH]c4c3CN(C(=O)N[C@@H]3CCCN(Cc5c(F)cccc5F)C3)CC4)ccc2n1 [Compound 133, N[1-[(2,6-difluorophenyl)-methyl]-3(R)-piperidinyl]-1,4,6,7-tetrahydro-3-(2-methyl-2H-indazol-5-yl)-5H-pyrazolo[4,3-c]pyridine-5-carboxamide]"
